According to patent publication US11739326B2, “RUNX1 inhibition for treatment of proliferative vitreoretinopathy and conditions associated with epithelial to mesenchymal transition” (The Schepens Eye Research Institute, Inc., priority 2017, dated 2023):
Entries after “also recorded” stand apart in the source; their conditions may differ.

How the values were obtained:
[1] = system: C-PVR cells; assay: Ki67 staining of C-PVR cells (cell number and proliferative capacity); assay type: cell-based, human; details: Ro5-3335 150 μM, 48 hours, vs vehicle
Protocol: C-PVR (e.g., case 5) cells were transfected with the siRUNX1 or siScramble for 48 hours and washed and fixed with 4% paraformaldehyde for 10 minutes at room temperature. The cells were washed with PBS and blocked for an hour in (10% goat serum in PBS) incubated with rabbit anti-Ki67 antibody (1:50; Novus Biologicals) overnight at 4 degrees. Cells were incubated with secondary antibody goat anti-rabbit 594 (1:300; Life Technologies) for 2 hours along with DAPI, then were washed and imaged (FIG. 7A-7I; quantitation depicted in FIG. 8).
C-PVR cells (e.g., case 5) were cultured in 48 well plates for 24, followed by treatment with 150 μM RUNX1 inhibitor (Ro5-3335, Calbiochem), or vehicle only for a period of 48 hours. The cells were washed and fixed with 4% paraformaldehyde for 10 minutes at room temperature. The cells were washed with PBS and blocked for an hour in (10% goat serum in PBS) incubated with rabbit anti-Ki67 antibody (1:50; Novus Biologicals) overnight at 4 degrees. Cells were incubated with secondary antibody goat anti-rabbit 594 (1:300; Life Technologies) for 2 hours along with DAPI, washed, imaged and quantified using Image J (FIGS. 9A and 9B).
C-PVR cells (e.g., case 5) were cultured in 48 well plates for 24, followed by treatment with 150 μM RUNX1 inhibitor (Ro5-3335, Calbiochem), or vehicle only for a period of 48 hours. […]

[2] = system: human PVR membranes; assay: Human PVR membrane explant model in Matrigel; assay type: cell-based; details: Ro5-3335 150 μM, combination with methotrexate 400 μM; for growth of human PVR membranes in explant model: vs control (DMSO)
Protocol: (§1) PVR membranes were freshly obtained from patients and placed in growth factor-reduced Matrigel (BD Biosciences) seeded in 24 well plates. 30 μl of matrigel were used to coat the bottom of 24 well plates without touching the edges of the well. After seeding the PVR membrane, explant plates were incubated in a 37° C. cell incubator without medium for 10 minutes in order for the Matrigel to solidify. 500 μl of medium was added to each well and incubated at 37° C. with 5% CO2. The explants were treated with RUNX1 inhibitor (Ro5-3335). Phase contrast photos of individual explants were taken daily.
as §1, with “from patients,” for “from patients and”, “(BD Biosciences), and” for “(BD Biosciences)”, “matrigel was” for “matrigel were”, “After seeding,” for “After seeding”, “PVR membrane” for “PVR membrane,”, “inhibitor (Ro5-3335) or a combination of Ro5-3335 and methotrexate.” for “inhibitor (Ro5-3335).”

[3] = system: ARPE-19 cells; assay: Growth factor-induced EMT in ARPE-19 cells (morphology, marker immunofluorescence); assay type: cell-based; details: TGFβ2, TNFα
Protocol: ARPE-19 cells were grown to confluence and maintained in 1% serum for 7-10 days (FIG. 22). Cells were treated with growth factors TGFβ2, TNFα and IL-6 (10 ng/ml each) for 3 days, with 150 μM RUNX1 inhibitor (Ro5-3335, Calbiochem) or without (e.g., vehicle). […] EMT was determined by morphological changes including cell shape.
Furthermore, treatment with RUNX1 small molecule inhibitor, Ro5-335, in ARPE-19 cells prevented EMT. This was assessed by the reduction in the epithelial marker, cytokeratin, and an increase in the mesenchymal markers such as fibronectin, and smooth muscle actin (FIGS. 23A and 23B). ARPE-19 cells were grown to confluence and maintained in 1% for 7-10 days. Cells were treated with TGFβ2, TNFα, and a combination of TGFβ2, TNFα and IL-6 (10 ng/ml each) for 3 days with or without 150 uM RUNX1 inhibitor (Ro5-3335, Calbiochem) or vehicle. Cells were washed and fixed with 4% paraformaldehyde for 10 minutes at room temperature. Cells were incubated with primary antibodies, mouse anti-cytokeratin (1:250; Abcam), or rabbit anti-fibronectin (1:500, Sigma) or smooth muscle actin (1:50; DAKO) overnight at 4° C. […]
ARPE-19 cells were grown to 60-70% confluence. […] EMT was determined by morphological changes (e.g., cell shape).

[4] = system: ARPE-19 cells; assay: CyQuant cell proliferation assay in ARPE-19 cells; assay type: cell-based; details: for percent live cells: Ro5-3335 100, 50, 25 μM, methotrexate 400, 100, 10 μM, alone or in combination vs vehicle
Protocol: (§2) ARPE 19 cells were cultured in 96 well plates for 8 hours, followed by treatment with RUNX1 inhibitor (Ro5-3335, Calbiochem) or Methotrexate (Sigma) in growth media or vehicle only for a period of 24 or 48 hours. The cells were washed and the CyQuant Direct nucleic acid stain was added and incubated at 37° C. in the incubator. Fluorescence read outs were measured at wavelengths as instructed in the protocol.

[5] = system: C-PVR cells; assay: CyQuant cell proliferation assay in C-PVR cells; assay type: cell-based, human; details: for percent live cells: C-PVR, Ro5-3335 100, 50, 25 μM, methotrexate 400, 100, 10 μM, alone or in combination vs vehicle
[6] = system: C-PVR cells; assay: CyQuant cell proliferation assay in C-PVR cells; assay type: cell-based, human; details: for proliferation / percent live cells of C-PVR cells: 72 hours, vs vehicle
Protocol: as §2
A CyQuant Cell Proliferation Assay was performed 48 and 72 hours post-treatment, with lenalidomide at 40 nM, and 80 nM. […] C-PVR cells were cultured in 96 well plates for 8 hours, followed by treatment with lenalidomide (Sigma-Aldrich) in growth media or vehicle only for a period of 48 or 72 hours. The cells were washed, and CyQuant Direct and nucleic acid stain was added and incubated at 37° C. Fluorescence read outs were measured at wavelengths as instructed in the protocol.

Compound: O=C1CN=C(c2ccc[nH]2)c2cc(Cl)ccc2N1 [Ro5-3335]
- cell number and proliferative capacity of C-PVR cells (Ki67 staining) [1]: significant reduction in the cell number and proliferative capacity
- cell number and proliferative capacity of C-PVR cells (Ki67 staining) ([1]; listed as Ro5-335): significant reduction in the cell number and proliferative capacity
- detachment of the branches from the primary tissue in human PVR explants [2]: Detachment of the branches from the primary tissue was also observed
- branching, regression of branches and apoptosis in human PVR explants ([2]; vs DMSO): apoptosis, less branching and a faster regression of the branches; also recorded: Less branching, a faster regression of the branches and apoptosis
- growth of human PVR membranes in explant model [2]: significant reduction of human PVR; also recorded: no growth after 4 days; also recorded: reduced growth of human PVR membranes
- growth of human PVR membranes in explant model ([2]; listed as Ro5-335): reduced the growth of human PVR membranes; also recorded: now growth after four days
- EMT determined by morphological changes including cell shape ([3]; IL-6 (10 ng/ml each) 3 days, Ro5-3335 150 μM vs vehicle): either no or reduced EMT
- EMT assessed by cytokeratin, fibronectin and smooth muscle actin immunofluorescence ([3]; combination with IL-6 (10 ng/mL each) 3 days, Ro5-3335 150 uM): prevented EMT
- efficacy at inhibiting growth of ARPE-19 cells compared to methotrexate ([4]; 24 or 48 hours): more efficacious at inhibiting growth of ARPE-19 cells; also recorded: more efficacious than treatment with methotrexate
- percent live cells ([4]; ARPE-19, 24 hours): significant reduction in percent live cells
- percent live cells ([4]; ARPE-19, 48 hours): significant reduction in percent live cells
- efficacy at inhibiting growth of C-PVR cells compared to methotrexate ([5]; 24 or 48 hours): more efficacious than treatment with methotrexate at inhibiting growth of C-PVR cells
- percent live cells ([5]; 24 hours): significant reduction in percent live cells
- percent live cells ([5]; 48 hours): significant reduction in percent live cells

Compound: Nc1cccc2c1CN(C1CCC(=O)NC1=O)C2=O (stereo not drawn) [lenalidomide, 3-(7-amino-3-oxo-1H-isoindol-2-yl)piperidine-2,6-dione]
- proliferation of C-PVR cells ([6]; 40 nM, 48 hours): inhibited proliferation
- proliferation / percent live cells of C-PVR cells ([6]; 40 nM): significant reduction in percent live cells
- proliferation of C-PVR cells ([6]; 80 nM, 48 hours): inhibited proliferation
- proliferation / percent live cells of C-PVR cells ([6]; 80 nM): significant reduction in percent live cells
- proliferation of C-PVR cells ([6]; 40 and 80 nM, 48 and 72 hours (summary statement)): significantly reduced proliferation
- proliferation of C-PVR cells ([6]; 40 and 80 nM, 48 and 72 hours (summary statement), listed as Lenlidomide): inhibited proliferation

Compound: CN(Cc1cnc2nc(N)nc(N)c2n1)c1ccc(C(=O)N[C@@H](CCC(=O)O)C(=O)O)cc1 [methotrexate]
- percent live cells ([4]; ARPE-19, 24 hours): significant reduction in percent live cells
- percent live cells ([4]; ARPE-19, 48 hours): significant reduction in percent live cells
- percent live cells ([5]; 24 hours): significant reduction in percent live cells
- percent live cells ([5]; 48 hours): significant reduction in percent live cells
